How the values were obtained:
Format in all cases: cell-based
[1] = system: Aged Human Keratinocytes; assay: Glutathione Assay (total glutathione, GSH-GSSG Glo, menadione challenge); conditions: for synergistic increase in GSH synthesis, combination with GAP amino acids vs either alone: resorcinol/test reagent combined with GAP, + menadione
Experimental: Aged Human Keratinocytes (Cascade Biologics, now ThermoFisher Scientific, Waltham, Mass.) were maintained in Epi Life® medium containing 60 uM calcium chloride and 1% Human Keratinocyte Growth Supplement (both media components from ThermoFisher Scientific) in a humidified incubator with an atmosphere containing 5% CO2 at 37° C. The medium was refreshed every 2-3 days. Subsequently, cells were trypsinized at 90% confluency and seeded at a density of 1×10^4 per well into 96-well plates with white wall and clear bottom. One or two days after seeding, cell medium was replaced with Hank's Balanced Salt Solution (HBSS), and keratinocytes were pre-treated with GAP (or 0.12-0.240 mM sodium hydroxide vehicle control, pH 7.5) alone or in combination with additional test reagents described above or L-cystine esters alone for 1-2 hours. The concentration of all amino acids constituting the GAP mixture used in this assay are designated in the data tables, and fully described in the abbreviations list below.
After one or two hours of pre-treatment with GAP or additional test reagents, alone or in combination, keratinocytes were then challenged with 25 uM menadione (Sigma-Aldrich), a known inducer of oxidative stress. After 18-20 hours, cells were harvested and analyzed for total glutathione levels using a commercially available kit (GSH-GSSG GLo Assay, Promega), a luminescence-based system for the detection and quantification of total glutathione in cultured cells. In summary, after cell treatment, the media was removed and replaced with a cell lysis reagent for 5 minutes at 20-25° C.; note, all remaining steps were also conducted at 20-25° C. Next, a luciferase generation reagent was added to each well and incubated for 30 minutes. Following this step, a luciferin detection reagent was added to each well and plates were incubated for 15 minutes. Finally, plates were then read for luminescence in a FlexStation 3 plate reader (Molecular Devices). Total glutathione levels were calculated after interpolation of glutathione concentrations from a standard curve. Experimental conditions were typically conducted in at least triplicate determinations. Statistical significance was calculated using 1-way ANOVA. Percent protection was calculated by using the calculated glutathione levels from each experiment in the following equation: […]

[2] = system: Human Keratinocytes; assay: Cell Viability Assay (CCK-8, menadione); conditions: + menadione
Experimental: Human Keratinocytes (Promocell, Heidelberg, Germany) were maintained in EpiLife® keratinocyte medium containing 60 uM calcium chloride and 1% Human Keratinocyte Growth Supplement (HKGS). The medium was refreshed every other day. Subsequently, cells were trypsinized at 90% confluency and seeded at a density of 2×10^4 per well into 96-well transparent tissue culture plates. On the second day after seeding, cell medium was replaced with treatments as described above in ROS assay section. After 18 hours, […] (CCK-8) reagent (Dojindo, Kumamoto, Japan) was diluted 1:10 in HBSS and incubated with cells for 4 h at 37° C. in a humidified incubator. Optical absorption at 450 nm was measured using a Tecan Safire2 plate reader. Relative viability was calculated with normalization based on the vehicle control treatment, which was set to 100%.
Where indicated, percent protection was calculated as a comparison to menadione alone treatment, using the measured relative absorbance units in the following equation: […]

[3] = system: Human Keratinocytes; assay: Reactive Oxygen Species (ROS) Assay (CellROX green, menadione); conditions: + menadione; for synergistic decrease in ROS production, combination with GAP amino acids vs either alone: resorcinol/test reagent combined with GAP
Experimental: Human Keratinocytes (Promocell, Heidelberg, Germany) were maintained in EpiLife® keratinocyte medium containing 60 uM calcium chloride and 1% Human Keratinocyte Growth Supplement (HKGS) in a humidified incubator with an atmosphere containing 5% CO2 at 37° C. The medium was refreshed every other day. Subsequently, cells were trypsinized at 90% confluency and seeded at a density of 1-2×10^4 per well into 96-well plates with black wall and clear bottom. On the second day after seeding, cell medium was replaced with Hank's Balanced Salt Solution (HBSS) with or without menadione (10-25 uM), GAP (typically at 49 uM pyroglutamic acid, 60 uM cystine, 194 uM glycine), GAP vehicle (0.2 mM NaOH, pH 7.5), above-described additional test reagents, or combinations of GAP with additional test reagents or L-cystine esters alone, and incubated for additional 18 hours. For ROS detection, CellROX green (Life Tech, Thermo Fisher Scientific, Rockford, USA) reagent was added into each well to a final concentration of 15-25 uM and incubated for additional 2-4 hours at 37° C. in a humidified incubator. The ROS fluorescence was detected using a Tecan microplate reader (Excitation/Emission=490/525). Relative ROS production was calculated with normalization based on the vehicle control treatment which was set to 100%. Where indicated, percent protection was calculated as a comparison to menadione alone treatment, using the measured relative fluorescent units in the following equation: […]
ROS levels were evaluated together with cell viability because it is possible to get a false negative for ROS if treatment is so toxic, that at the time of assay, cells are dead (and there are no longer any detectable ROS). Decrease in ROS levels is meaningful if cells are still viable.

[4] = Table 2B, resorcinol (BR or IPR) 10 uM + menadione
[5] = Table 2B, resorcinol (BR or IPR) 50 uM + menadione
[6] = Table 2B, resorcinol (BR or IPR) 100 uM + menadione
[7] = Table 3C, MR 10 uM where present
[8] = Table 3A, Olivetol or 3-hydroxytyrosol 10 uM + menadione
[9] = Table 3A, Olivetol or 3-hydroxytyrosol 20 uM + menadione
[10] = Table 3A, Olivetol or 3-hydroxytyrosol 50 uM + menadione
[11] = Table 2F, PER 20 uM where present
[12] = Table 2G, PER 10 uM + menadione
[13] = Table 2G, PER 20 uM + menadione
[14] = Table 2G, PER 50 uM + menadione
[15] = Table 3D, 4-CHMR 10 uM + menadione
[16] = Table 3D, 4-CHMR 20 uM + menadione
[17] = Table 3D, 4-CHMR 50 uM + menadione

## CC(C)c1ccc(O)cc1O [IPR, 4-isopropylresorcinol]
[1]; [4]
  % Protection (improvement vs. vehicle control + menadione): 6%
  Glutathione Synthesis, Mean (uM glutathione): 0.12 µM
[1]; [5]
  % Protection (improvement vs. vehicle control + menadione): 6%
  Glutathione Synthesis, Mean (uM glutathione): 0.12 µM
[1]; [6]
  % Protection (improvement vs. vehicle control + menadione): 8%
  Glutathione Synthesis, Mean (uM glutathione): 0.16 µM
[1]
  synergistic increase in GSH synthesis, combination with GAP amino acids vs either alone: synergistic increase

## Cc1ccc(O)cc1O [MR, 4-methylresorcinol]
[2]; [7]
  Cell viability (% of vehicle control): 45.3%
[3]; [7]
  Mean ROS production (% of vehicle control): 233.5^1%
[3]
  synergistic decrease in ROS production, combination with GAP amino acids vs either alone: did not result

## CCCCCc1cc(O)cc(O)c1 [Olivetol, 5-pentylresorcinol]
[1]; [8]
  % Protection (improvement vs vehicle control + menadione): −1%
  Glutathione Synthesis, Mean (uM glutathione): 0.14 µM
[1]; [9]
  % Protection (improvement vs vehicle control + menadione): −1%
  Glutathione Synthesis, Mean (uM glutathione): 0.13 µM
[1]; [10]
  % Protection (improvement vs vehicle control + menadione): −2%
  Glutathione Synthesis, Mean (uM glutathione): 0.11 µM
[1]
  synergistic increase in GSH synthesis, combination with GAP amino acids vs either alone: did not result

## CC(c1ccccc1)c1ccc(O)cc1O (stereo not drawn) [PER, 4-(1-phenylethyl)resorcinol]
[2]; [11]
  % Protection (improvement vs vehicle control + menadione), cell viability: 1.09%
  Cell viability (% of control): 62.3%
[1]; [12]
  % Protection (improvement vs vehicle control + menadione): −2%
  Glutathione Synthesis, Mean (uM glutathione): 0.12 µM
[1]; [13]
  % Protection (improvement vs vehicle control + menadione): 3%
  Glutathione Synthesis, Mean (uM glutathione): 0.25 µM
[1]; [14]
  % Protection (improvement vs vehicle control + menadione): 12%
  Glutathione Synthesis, Mean (uM glutathione): 0.50 µM
[1]
  synergistic increase in GSH synthesis, combination with GAP amino acids vs either alone: not observed
[3]; [11]
  % protection (improvement vs vehicle control + menadione), ROS: −6.74%
  Mean ROS production (% of vehicle control): 321.5%
[3]
  synergistic decrease in ROS production, combination with GAP amino acids vs either alone: synergistic decrease

## Oc1ccc(CC2CCCCC2)c(O)c1 [Sample 4-CHMR, 4-(cyclohexylmethyl)resorcinol]
[1]; [15]
  % Protection: −4.6%
  Glutathione Synthesis, Mean (uM glutathione): 0.07 µM
[1]; [16]
  % Protection: −6.2%
  Glutathione Synthesis, Mean (uM glutathione): 0.026 µM
[1]; [17]
  % Protection: −1.7%
  Glutathione Synthesis, Mean (uM glutathione): 0.147 µM
[1]
  synergistic increase in GSH synthesis, combination with GAP amino acids vs either alone: did not result
